Data on 1 compound can be found in US12391737B2, “Soluble NPY2 receptor agonists” (Boehringer Ingelheim International GmbH, priority 2020, dated 2025).

Data set [1] has as its target T1, human NPY4 receptor (hY4R) (Homo sapiens, UniProt P50391).
T1 construct: expressed in transfected cells; host or cells: CHO-K1
The data set can be described thus: HTRF cAMP Gi assay, hY4R. It counts as cell-based. The following applies: CHO-K1 cells. A general note: TR-FRET usually uses a lanthanide donor and a delayed reading to cut background.

In data set [2] the target is T2, Human Neuropeptide Y2 Receptor (Homo sapiens, UniProt P49146).
T2 construct: purchased CHEMICON HTS066M
T2 sequence (P49146 1-381): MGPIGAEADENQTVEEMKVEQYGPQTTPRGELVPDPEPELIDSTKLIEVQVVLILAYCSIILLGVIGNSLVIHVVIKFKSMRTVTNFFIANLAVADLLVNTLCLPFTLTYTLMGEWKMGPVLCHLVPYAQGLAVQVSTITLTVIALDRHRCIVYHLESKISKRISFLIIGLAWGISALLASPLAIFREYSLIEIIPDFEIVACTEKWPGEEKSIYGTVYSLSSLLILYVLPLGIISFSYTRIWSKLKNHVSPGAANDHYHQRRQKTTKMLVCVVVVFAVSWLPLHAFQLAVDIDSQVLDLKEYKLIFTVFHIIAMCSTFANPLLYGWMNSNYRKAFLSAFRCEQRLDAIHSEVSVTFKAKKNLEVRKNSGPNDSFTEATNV
In words: Radioligand binding competition assay (RLB). The following applies: Table 3, 125I-PYY(1-36) competition; read-out: Ki. The essentials:
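Displacement of radioligand is measured after 2 h at room temperature with receptor membranes in Mg2+/Ca2+ HEPES buffer, pH 7.4. Filter-bound radioactivity is counted and IC50 obtained from curve fitting.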

The target of data set [3] is T3, human NPY1 receptor (hY1R) (Homo sapiens, UniProt P25929).
T3 construct: expressed in transfected cells; host or cells: CHO-K1
T3 sequence (P25929 1-384): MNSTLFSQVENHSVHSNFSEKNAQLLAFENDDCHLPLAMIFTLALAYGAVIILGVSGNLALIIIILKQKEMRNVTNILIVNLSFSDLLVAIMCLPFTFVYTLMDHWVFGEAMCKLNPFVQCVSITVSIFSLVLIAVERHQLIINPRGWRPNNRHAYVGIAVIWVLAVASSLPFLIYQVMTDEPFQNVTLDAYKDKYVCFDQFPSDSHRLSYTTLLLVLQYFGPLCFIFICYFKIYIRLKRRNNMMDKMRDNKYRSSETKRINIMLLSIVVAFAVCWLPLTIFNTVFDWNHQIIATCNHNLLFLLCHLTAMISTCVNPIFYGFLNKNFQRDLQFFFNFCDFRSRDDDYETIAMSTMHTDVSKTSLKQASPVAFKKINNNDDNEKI
In words: HTRF cAMP Gi assay, hY1R. The following applies: CHO-K1 cells. It counts as cell-based.
Description: Briefly, the production of intracellular cAMP will generate a competition between unlabeled cAMP and exogenously added d2-cAMP for anti-cAMP antibodies conjugated to cryptate. CHO-K1 cells stably expressing the human NPY1, NPY2, NPY4 and NPY5 receptors were used with the cells brought to life from a frozen stock immediately before assay performance. 2000 cells per well were applied for all four NPY receptor subtype assays. A 384-well format was used applying a total volume of 20 μl using 5 μl cells, 2.5 μl peptide agonist, 2.5 μl forskolin and 5 μl of each of the fluorophores. […] Concentration-response evaluation of compounds was performed with 11 concentrations of agonist peptides (covering 3 decades). EC50 values were calculated by nonlinear regression using sigmoid concentration-response with variable slope.

Data set [4] addresses T4, human NPY5 receptor (hY5R) (Homo sapiens, UniProt Q15761).
T4 sequence (Q15761 1-445): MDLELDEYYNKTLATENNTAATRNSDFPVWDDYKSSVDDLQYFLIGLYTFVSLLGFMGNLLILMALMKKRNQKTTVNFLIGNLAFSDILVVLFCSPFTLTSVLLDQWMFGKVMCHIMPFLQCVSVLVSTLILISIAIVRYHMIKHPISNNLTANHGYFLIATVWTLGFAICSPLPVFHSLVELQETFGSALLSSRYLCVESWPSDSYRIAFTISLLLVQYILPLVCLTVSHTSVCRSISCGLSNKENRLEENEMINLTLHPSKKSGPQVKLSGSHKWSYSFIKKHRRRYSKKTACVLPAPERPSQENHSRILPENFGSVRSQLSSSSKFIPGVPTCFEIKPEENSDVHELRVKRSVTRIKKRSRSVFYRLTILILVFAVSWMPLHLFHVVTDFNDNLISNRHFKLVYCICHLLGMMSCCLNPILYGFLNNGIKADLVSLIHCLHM
The data set can be described thus: HTRF cAMP Gi assay, hY5R.

The target in data set [5] is T5, human NPY2 receptor (hY2R) (Homo sapiens, UniProt P49146).
T5 sequence (P49146 1-381): T2 sequence (P49146 1-381)
The data set can be described thus: HTRF cAMP Gi assay, hY2R.
Excerpt: The Homogenous Time Resolved fluorescence (HTRF) technology optimized for Gi coupled receptors has thoroughly been described in Cisbio cAMP Gi kit manual. Briefly, the production of intracellular cAMP will generate a competition between unlabeled cAMP and exogenously added d2-cAMP for anti-cAMP antibodies conjugated to cryptate. CHO-K1 cells stably expressing the human NPY1, NPY2, NPY4 and NPY5 receptors were used with the cells brought to life from a frozen stock immediately before assay performance. 2000 cells per well were applied for all four NPY receptor subtype assays. A 384-well format was used applying a total volume of 20 μl using 5 μl cells, 2.5 μl peptide agonist, 2.5 μl forskolin and 5 μl of each of the fluorophores. […] Concentration-response evaluation of compounds was performed with 11 concentrations of agonist peptides (covering 3 decades). EC50 values were calculated by nonlinear regression using sigmoid concentration-response with variable slope.

A further data set in a line: Solubility determination. The essentials:
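Shake-flask style: 10 mg/ml peptide (TFA salt), 0.1 M sodium diphosphate pH 6.4/7.0, 600 rpm, 2 h, RT; filter; dilute 1 mg/ml in 50% MeCN; RP-UPLC, 0–100% B over 2 min, 50 °C. Solubility = sample/control area ratio. Final pH recorded.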

T1 sequence (P50391 whole entry): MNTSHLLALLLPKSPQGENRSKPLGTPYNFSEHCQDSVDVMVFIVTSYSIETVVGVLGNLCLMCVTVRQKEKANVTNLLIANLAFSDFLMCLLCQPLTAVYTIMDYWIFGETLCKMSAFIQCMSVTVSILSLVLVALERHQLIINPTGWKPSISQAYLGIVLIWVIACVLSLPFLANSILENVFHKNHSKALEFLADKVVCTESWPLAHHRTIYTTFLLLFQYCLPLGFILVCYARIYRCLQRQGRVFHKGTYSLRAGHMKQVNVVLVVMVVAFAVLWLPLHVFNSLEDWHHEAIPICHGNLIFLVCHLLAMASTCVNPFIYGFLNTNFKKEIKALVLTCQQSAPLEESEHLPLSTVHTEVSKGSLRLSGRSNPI

The EC50 is the concentration needed to bring the measured effect to its halfway point. A lower EC50 goes with higher potency in that assay. In general, Ki refers to the equilibrium dissociation constant of an inhibitor or competing ligand from its target. On to `CC[C@H](C)[C@H](NC(=O)[C@H](Cc1ccc(O)cc1)NC(=O)[C@H](Cc1ccc(O)cc1)NC(=O)[C@H](CCCNC(=N)N)NC(=O)[C@H](CCC(N)=O)NC(=O)[C@@H](NC(=O)[C@H](CCC(=O)O)NC(=O)[C@H](CCC(=O)O)NC(=O)[C@@H]1CCCN1C(=O)[C@H](CO)NC(=O)[C@H](C)NC(=O)[C@H](CC(=O)O)NC(=O)[C@H](CCC(=O)O)NC(=O)[C@H](CCC(=O)O)NC(=O)[C@@H]1CCCN1C(=O)[C@H](CCCCNC(=O)CCCCCNC(=O)CC[C@H](NC(=O)CCCCCCCCCCCCCCCCC(=O)O)C(=O)O)NC(=O)[C@H](C)NC(=O)[C@@H]1CCCN1C(=O)[C@H](C)NC(=O)CC(C)C)[C@@H](C)CC)C(=O)N[C@@H](CO)C(=O)N[C@@H](CC(C)C)C(=O)N[C@@H](CCCNC(=N)N)C(=O)N[C@@H](Cc1c[nH]cn1)C(=O)N[C@@H](Cc1ccc(O)cc1)C(=O)N[C@@H](Cc1ccc(O)cc1)C(=O)N[C@@H](CC(N)=O)C(=O)N[C@@H](Cc1c[nH]c2ccccc12)C(=O)N[C@@H](CC(C)C)C(=O)N[C@H](C(=O)N[C@@H](CCCNC(=N)N)C(=O)N[C@@H](CCC(N)=O)C(=O)N[C@@H](CCCNC(=N)N)C(=O)N[C@@H](Cc1ccc(O)cc1)C(N)=O)[C@@H](C)O` [Compound 195, N{alpha-4}-(3-methylbutanoyl)-N{epsilon-7}-(6-[(4S)-4-carboxy-4-(17-carboxyheptadecanamido)butanamido]hexanoyl)-[4A,6A,7K,9E,17I,18Q,22I,28Y,30W,31L]-hPYY(4-36)], for which the EC50 in data set [1] was greater than 5000 nM; in data set [3], greater than 5000 nM; in data set [4], greater than 5000 nM; in data set [5], 0.197 nM. In data set [2], the inhibition constant Ki was found to be 0.78 nM. For the same compound, in the data set “Solubility determination” (pH 6), the “Sol6” value was determined as 8.2 mg/mL. Moreover, in “Solubility determination” (pH 7), the “Sol7” value came to 8.2 mg/mL.
